According to PubChem BioAssay AID248 (DTP/NCI, 2004):
“And” between values parts separate entries of the source, which are not always exact repeats. Identical values can stand only once. Toxic doses and inconclusive results are not listed. Cut-off read from the data, not from the text of the source: active = T/C of 150% or more; inactive = T/C below 125%.

System: L1210 leukemia ip in BDF1 mice, survival T/C
Assay: NCI In Vivo Anticancer Drug Screen. Data for tumor model L1210 Leukemia (intraperitoneal) in B6D2F1 (BDF1) mice
Conditions: endpoint: mean survival time, higher = longer survival
How it was run: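 Mice bearing the transplanted tumor received compound or vehicle. Survival of the treated group was divided by that of the vehicle-treated control group to give the ratio.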

[1] = dose: 100.0 mg/kg/injection, schedule: Q04DX003 (ip), vehicle: saline
[2] = dose: 100.0 mg/kg/injection, schedule: Q01DX001 (ip), vehicle: saline
[3] = dose: 200.0 mg/kg/injection, schedule: Q01DX001 (ip), vehicle: saline
[4] = dose: 400.0 mg/kg/injection, schedule: Q01DX001 (ip), vehicle: saline
[5] = dose: 50.0 mg/kg/injection, schedule: Q01DX001 (ip), vehicle: carboxymethylcellulose (CMC)
[6] = dose: 100.0 mg/kg/injection, schedule: Q01DX001 (ip), vehicle: carboxymethylcellulose (CMC)
[7] = dose: 200.0 mg/kg/injection, schedule: Q01DX001 (ip), vehicle: carboxymethylcellulose (CMC)
[8] = dose: 400.0 mg/kg/injection, schedule: Q01DX001 (ip), vehicle: carboxymethylcellulose (CMC)
[9] = dose: 50.0 mg/kg/injection, schedule: Q01DX001 (ip), vehicle: saline
[10] = dose: 12.5 mg/kg/injection, schedule: Q04DX002 (ip), vehicle: Klucel (hydroxypropylcellulose) (HPC)
[11] = dose: 25.0 mg/kg/injection, schedule: Q04DX002 (ip), vehicle: Klucel (hydroxypropylcellulose) (HPC)
[12] = dose: 100.0 mg/kg/injection, schedule: Q04DX003 (ip), vehicle: Klucel (hydroxypropylcellulose) (HPC)
[13] = dose: 200.0 mg/kg/injection, schedule: Q04DX003 (ip), vehicle: Klucel (hydroxypropylcellulose) (HPC)
[14] = dose: 400.0 mg/kg/injection, schedule: Q04DX003 (ip), vehicle: Klucel (hydroxypropylcellulose) (HPC)

Measured: T/C

O=c1cccccc1O.O=c1cccccc1O.O=c1cccccc1O.[Cr]
inactive: dose: 75.0 mg/kg/injection, schedule: Q04DX003 (ip), vehicle: saline 100 % of control | dose: 150.0 mg/kg/injection, schedule: Q04DX003 (ip), vehicle: saline 104 % of control | dose: 300.0 mg/kg/injection, schedule: Q04DX003 (ip), vehicle: saline 90 % of control

CCOC(=O)C(C(C)=O)C(c1ccc(OCc2ccccc2)c(C)c1)C(C(C)=O)C(=O)OCC (configuration not stated)
inactive: [1] 94 % of control | dose: 200.0 mg/kg/injection, schedule: Q04DX003 (ip), vehicle: saline 94 % of control | dose: 400.0 mg/kg/injection, schedule: Q04DX003 (ip), vehicle: saline 95 % of control

COc1ccc(OC)c(NC(=O)CS)c1
inactive: dose: 100.0 mg/kg/injection, schedule: Q04DX003 (ip), vehicle: saline with Tween-80 97 % of control | dose: 200.0 mg/kg/injection, schedule: Q04DX003 (ip), vehicle: saline with Tween-80 91 % of control

CCOc1cc(/C=N/N2CCN(/N=C/c3ccc(O)c(OCC)c3)CC2)ccc1O
inactive: [2] 117 % of control | [3] 94 % of control | [4] 88 % of control

O=C1C(=O)c2cc(Cl)ccc2-c2ccccc21
inactive: [5] 100 % of control | [6] 102 % of control | [7] 100 % of control | [8] 105 % of control

CCSC1OC(COC(C)=O)C(OC(C)=O)C1NC(C)=O (configuration not stated)
inactive: [9] 103 % of control | [2] 113 % of control | [3] 97 % of control | [4] 107 % of control

C[S+]1CCCCC1
inactive: [9] 96 % of control | [2] 100 % of control

CC([NH-])C[NH-].[Cl][Pd][Cl] (configuration not stated)
inactive: dose: 6.25 mg/kg/injection, schedule: Q04DX002 (ip), vehicle: Klucel (hydroxypropylcellulose) (HPC) 93 % of control | [10] 102 % of control and 93 % of control | dose: 12.5 mg/kg/injection, schedule: Q04DX003 (ip), vehicle: Klucel (hydroxypropylcellulose) (HPC) 96 % of control | [11] 90 % of control | dose: 25.0 mg/kg/injection, schedule: Q04DX003 (ip), vehicle: Klucel (hydroxypropylcellulose) (HPC) 94 % of control | dose: 50.0 mg/kg/injection, schedule: Q04DX002 (ip), vehicle: Klucel (hydroxypropylcellulose) (HPC) 90 % of control | dose: 50.0 mg/kg/injection, schedule: Q04DX003 (ip), vehicle: Klucel (hydroxypropylcellulose) (HPC) 91 % of control

C/C(=N/N(C)C)c1ccc(Cl)cc1
inactive: dose: 12.5 mg/kg/injection, schedule: Q01DX009 (ip), vehicle: saline 105 % of control | dose: 25.0 mg/kg/injection, schedule: Q01DX009 (ip), vehicle: saline 112 % of control | dose: 50.0 mg/kg/injection, schedule: Q01DX009 (ip), vehicle: saline 111 % of control | [1] 101 % of control

CN(C)CN1C(=O)c2ccccc2C1=O
inactive: dose: 100.0 mg/kg/injection, schedule: Q01DX009 (ip), vehicle: Klucel (hydroxypropylcellulose) (HPC) 103 % of control | dose: 200.0 mg/kg/injection, schedule: Q01DX009 (ip), vehicle: Klucel (hydroxypropylcellulose) (HPC) 100 % of control | dose: 400.0 mg/kg/injection, schedule: Q01DX009 (ip), vehicle: Klucel (hydroxypropylcellulose) (HPC) 104 % of control

O=C1c2ccccc2-c2cccc3ccc(-c4ccccc4)c1c23
inactive: dose: 75.0 mg/kg/injection, schedule: Q01DX009 (ip), vehicle: Klucel (hydroxypropylcellulose) (HPC) 105 % of control | [12] 96 % of control | dose: 150.0 mg/kg/injection, schedule: Q01DX009 (ip), vehicle: Klucel (hydroxypropylcellulose) (HPC) 97 % of control | [13] 96 % of control | dose: 300.0 mg/kg/injection, schedule: Q01DX009 (ip), vehicle: Klucel (hydroxypropylcellulose) (HPC) 101 % of control | [14] 100 % of control

CC(=O)Nc1cc(F)c2c(c1)Cc1cc(F)ccc1-2
inactive: [5] 102 % of control | [6] 98 % of control | [7] 93 % of control | [8] 93 % of control

CNC1(c2ccccc2)CC2CCC(C2)C1O (configuration not stated)
inactive: [2] 98 % of control | [12] 101 % of control | [3] 106 % of control | [13] 104 % of control | [4] 101 % of control | [14] 108 % of control

CCOc1ccc(NC2CNC(=O)NC2=O)cc1 (configuration not stated)
inactive: dose: 200.0 mg/kg/injection, schedule: Q01DX Z (ip), vehicle: methylcellulose (MC) 91 % of control

CCOC(=O)CCC(N)C(=O)O (configuration not stated)
inactive: dose: 100.0 mg/kg/injection, schedule: Q04DX002 (ip), vehicle: saline 110 % of control | dose: 200.0 mg/kg/injection, schedule: Q04DX002 (ip), vehicle: saline 106 % of control | dose: 400.0 mg/kg/injection, schedule: Q04DX002 (ip), vehicle: saline 102 % of control

CCCCCSP(=S)(SCCCCC)c1ccccc1
inactive: dose: 100.0 mg/kg/injection, schedule: Q04DX002 (ip), vehicle: saline with Tween-80 99 % of control | dose: 200.0 mg/kg/injection, schedule: Q04DX002 (ip), vehicle: saline with Tween-80 105 % of control | dose: 400.0 mg/kg/injection, schedule: Q04DX002 (ip), vehicle: saline with Tween-80 99 % of control

CC1(C)C2CCC1(C)C(N=C(N)CSS(=O)(=O)O)C2 (configuration not stated)
inactive: [10] 112 % of control | dose: 25.0 mg/kg/injection, schedule: Q01DX001 (ip), vehicle: Klucel (hydroxypropylcellulose) (HPC) 101 % of control | [11] 98 % of control | dose: 50.0 mg/kg/injection, schedule: Q01DX001 (ip), vehicle: Klucel (hydroxypropylcellulose) (HPC) 98 % of control | dose: 100.0 mg/kg/injection, schedule: Q01DX001 (ip), vehicle: Klucel (hydroxypropylcellulose) (HPC) 87 % of control

CC(C)CP(=O)(CC(C)C)CC(C)C
inactive: dose: 6.25 mg/kg/injection, schedule: Q04DX003 (ip), vehicle: saline with Tween-80 98 % of control

O[C@H]1[C@H]2c3cc4c(cc3CN3CCC(=C[C@@H]1O)[C@H]23)OCO4
inactive: dose: 50.0 mg/kg/injection, schedule: Q01DX Z (ip), vehicle: steriod suspending solution 120 % of control | dose: 75.0 mg/kg/injection, schedule: Q01DX Z (ip), vehicle: steriod suspending solution 96 % of control and 105 % of control | dose: 100.0 mg/kg/injection, schedule: Q01DX Z (ip), vehicle: steriod suspending solution 114 % of control

O=[N+]([O-])c1cccc2cncc(Br)c12
inactive: dose: 100.0 mg/kg/injection, schedule: Q01DX001 (ip), vehicle: other 95 % of control | dose: 200.0 mg/kg/injection, schedule: Q01DX001 (ip), vehicle: other 106 % of control | dose: 400.0 mg/kg/injection, schedule: Q01DX001 (ip), vehicle: other 104 % of control

CCCS(=O)(=O)N1CCCCC1
inactive: dose: 100.0 mg/kg/injection, schedule: Q04DX002 (ip), vehicle: Klucel (hydroxypropylcellulose) (HPC) 102 % of control | dose: 200.0 mg/kg/injection, schedule: Q04DX002 (ip), vehicle: Klucel (hydroxypropylcellulose) (HPC) 94 % of control | dose: 400.0 mg/kg/injection, schedule: Q04DX002 (ip), vehicle: Klucel (hydroxypropylcellulose) (HPC) 102 % of control

O=S1CCCO1 (configuration not stated)
inactive: dose: 4.7 mg/kg/injection, schedule: Q01DX009 (ip), vehicle: saline 100 % of control | dose: 9.4 mg/kg/injection, schedule: Q01DX009 (ip), vehicle: saline 96 % of control | dose: 18.8 mg/kg/injection, schedule: Q01DX009 (ip), vehicle: saline 93 % of control | dose: 75.0 mg/kg/injection, schedule: Q01DX001 (ip), vehicle: saline 98 % of control
